According to US20260224588A1, “BENZODIAZEPINONE-DERIVED INHIBITORS OF EGFR AND HER2” (The Research Foundation for the State University of New York, priority 2023, published 2026):
Entries after “also recorded” stand apart in the source; their conditions may differ. Read-outs that look alike come from different tables or passages of the source.

How the values were obtained:
[1] = target: T1, EGFR L858R/T790M/C797S kinase domain (Homo sapiens, UniProt P00533, C797S/L858R/T790M); assay: HTRF-based activity assay; assay type: biochemical
T1 construct: The EGFR kinase domain (residues 696-1022) was cloned into pTriEx; 6xHis (N, cleaved yes); GST (N, cleaved yes); made in house; host or cells: SF9 insect cells (baculovirus)
T1 sequence (P00533 696-1022 T790M/C797S/L858R): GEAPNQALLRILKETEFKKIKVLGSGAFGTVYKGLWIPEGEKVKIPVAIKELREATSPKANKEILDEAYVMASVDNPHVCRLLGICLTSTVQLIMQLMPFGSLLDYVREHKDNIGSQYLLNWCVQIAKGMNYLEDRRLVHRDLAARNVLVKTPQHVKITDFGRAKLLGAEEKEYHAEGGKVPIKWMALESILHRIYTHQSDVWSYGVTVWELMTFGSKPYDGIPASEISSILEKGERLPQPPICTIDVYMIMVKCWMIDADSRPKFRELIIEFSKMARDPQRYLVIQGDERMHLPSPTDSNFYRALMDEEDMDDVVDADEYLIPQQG
Description: (§1) Protein expression and purification. The EGFR kinase domain (residues 696-1022) was cloned into pTriEx with an N-terminal 6×His-glutathione S-transferase (GST) fusion tag followed by a TEV protease cleavage site. EGFR WT, L858R, L858R/T790M, L858R/T790M/C797S was expressed after baculoviral infection in SF9 cells and EGFR(T790M/V948R) was expressed in SF21 cells. Briefly, cells were pelleted and resuspended in lysis buffer composed of 50 mM Tris pH 8.0, 500 mM NaCl, 1 mM tris(2-carboxyethyl)phosphine (TCEP), and 5% glycerol. Cells were lysed via sonication prior to ultracentrifugation at >200,000 g for 1 h. Imidazole pH 8.0 was added to the supernatant for a final concentration of 40 mM and flowed through a column containing Ni-NTA agarose beads. The resin was washed with lysis buffer supplemented with 40 mM imidazole and eluted with lysis buffer containing 200 mM imidazole. Eluted EGFR kinase domain was dialyzed overnight in the presence of 5% (w/w) TEV protease against dialysis buffer containing 50 mM Tris pH 8.0, 500 mM NaCl, 1 mM TCEP, and 5% glycerol. The cleaved protein was passed through Ni-NTA resin to remove the 6×His-GST fusion protein and TEV prior to size exclusion chromatography on a prep-grade Superdex S200 column in 50 mM Tris pH 8.0, 500 mM NaCl, 1 mM TCEP, and 5% glycerol.
(§2) HTRF Assays. Biochemical assays for EGFR domains were carried out using a homogeneous time-resolved fluorescence (HTRF) KinEASE-TK (Cisbio) assay, as described previously. Assays were optimized for ATP concentration of 100 μM with enzyme concentrations WT EGFR 10 nM, L858R 0.1 nM, L858R/T790M at 0.02 nM and L858R/T790M/C797S at 0.02 nM. Inhibitor compounds in DMSO were dispensed directly in 384-well plates with the D300 digital dispenser (Hewlett Packard) followed immediately by the addition of aqueous buffered solutions using the Multidrop Combi Reagent Dispenser (Thermo Fischer). […] The curves were fitted using a non-linear regression model with a sigmoidal dose response.

WT EGFR kinase domain = target: T2, WT EGFR kinase domain (Homo sapiens, UniProt P00533); assay: HTRF-based activity assay; assay type: biochemical
T2 construct: The EGFR kinase domain (residues 696-1022) was cloned into pTriEx; 6xHis (N, cleaved yes); GST (N, cleaved yes); made in house; host or cells: SF9 insect cells (baculovirus)
T2 sequence (P00533 696-1022): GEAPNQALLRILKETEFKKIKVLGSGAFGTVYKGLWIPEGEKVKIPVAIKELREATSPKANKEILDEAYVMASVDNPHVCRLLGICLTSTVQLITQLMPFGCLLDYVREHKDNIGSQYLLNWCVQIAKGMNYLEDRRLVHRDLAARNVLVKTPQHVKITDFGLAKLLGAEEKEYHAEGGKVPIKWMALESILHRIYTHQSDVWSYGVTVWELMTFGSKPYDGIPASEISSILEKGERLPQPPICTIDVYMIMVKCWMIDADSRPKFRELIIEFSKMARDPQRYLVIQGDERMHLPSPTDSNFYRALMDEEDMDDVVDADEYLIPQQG
Description: as §1, §2

[2] = target: T3, EGFR L858R/T790M kinase domain (Homo sapiens, UniProt P00533, L858R/T790M); assay: HTRF-based activity assay; assay type: biochemical
T3 construct: The EGFR kinase domain (residues 696-1022) was cloned into pTriEx; 6xHis (N, cleaved yes); GST (N, cleaved yes); made in house; host or cells: SF9 insect cells (baculovirus)
T3 sequence (P00533 696-1022 T790M/L858R): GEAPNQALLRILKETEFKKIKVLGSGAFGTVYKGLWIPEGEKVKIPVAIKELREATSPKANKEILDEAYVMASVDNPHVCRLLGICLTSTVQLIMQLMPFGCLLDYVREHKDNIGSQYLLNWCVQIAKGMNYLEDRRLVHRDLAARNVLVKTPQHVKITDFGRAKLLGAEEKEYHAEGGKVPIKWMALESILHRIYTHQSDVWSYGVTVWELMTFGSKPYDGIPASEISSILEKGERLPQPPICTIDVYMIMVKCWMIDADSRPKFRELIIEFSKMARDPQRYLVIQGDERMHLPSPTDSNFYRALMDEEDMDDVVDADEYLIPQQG
Description: as §1, §2

EGFR L858R kinase domain = target: T4, EGFR L858R kinase domain (Homo sapiens, UniProt P00533, L858R); assay: HTRF-based activity assay; assay type: biochemical
T4 construct: The EGFR kinase domain (residues 696-1022) was cloned into pTriEx; 6xHis (N, cleaved yes); GST (N, cleaved yes); made in house; host or cells: SF9 insect cells (baculovirus)
T4 sequence (P00533 696-1022 L858R): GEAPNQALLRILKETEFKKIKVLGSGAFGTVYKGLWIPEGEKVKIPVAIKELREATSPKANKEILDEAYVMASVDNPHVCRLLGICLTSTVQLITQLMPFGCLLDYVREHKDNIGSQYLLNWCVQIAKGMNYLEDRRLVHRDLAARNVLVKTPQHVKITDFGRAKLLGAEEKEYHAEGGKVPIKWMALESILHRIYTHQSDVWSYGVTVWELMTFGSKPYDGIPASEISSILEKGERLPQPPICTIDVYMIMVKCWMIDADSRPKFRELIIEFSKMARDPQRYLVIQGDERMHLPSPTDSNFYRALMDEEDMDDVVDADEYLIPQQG
Description: as §1, §2

[3] = tested on: EGFR (L858R/T790M) in H1975 lung cancer cells; assay: Western blotting of EGFR, ERK1/2 and AKT phosphorylation; assay type: cell-based, human; settings: 6 hours treatment
Description: FIG. 2. […] All experiments performed after 6 hours treatments of inhibitors or DMSO controls and Western blots are representative of at least three independent experiments.
Western blotting. Cells were collected and lysed with lysis buffer (5M NaCl, 1M TRIS pH 8.0, 10% SDS, 10% Triton X-100 and a tablet of protease inhibitors) and processed for Western blotting analysis. Primary antibodies used; phospho-EGFR (Tyr1068; #2234, 1:1,000), EGFR (#4267; 1:1,000), phospho-AKT (Ser473; #4060, 1:1,000), AKT (#9272, 1:1,000), phospho-ERK1/2 (Thr202/Tyr204; #4370, 1:1,000), and ERK1/2 (#4695, 1:1,000) antibodies; were purchased from Cell Signaling Technology. Secondary Goat anti-rabbit IgG starbright blue 700 and Anti-tubulin hFAB Rhodamine Tubulin were purchased from Bio-rad.

[4] = tested on: L858R EGFR mutant Ba/F3 cells; settings: cited from earlier work
[5] = tested on: wildtype EGFR Ba/F3 cells; settings: from literature (footnotes a, c), read-out: Anti-proliferative EC50 ± SE, wt; cited from earlier work
[6] = tested on: L858R/T790M EGFR mutant Ba/F3 cells; settings: from literature (footnotes a, c), read-out: Anti-proliferative EC50 ± SE, LR/TM; cited from earlier work
[7] = tested on: wildtype HER2 Ba/F3 cells; settings: from Heppner et al. 2022, read-out: Anti-proliferative EC50 ± SE, HER2; cited from earlier work
[8] = 100 μM ATP, enzyme 0.1 nM, read-out: Biochemical EGFR IC50, LR
[9] = 100 μM ATP, enzyme 0.02 nM, read-out: Biochemical EGFR IC50, LRTMCS
[10] = 100 μM ATP, enzyme 0.02 nM, read-out: Biochemical EGFR IC50, LRTM
[11] = from literature (footnotes a, c), read-out: Anti-proliferative EC50 ± SE, LR

| Structure (SMILES) | IC50 (EGFR L858R kinase domain; [8]) [nM] | IC50 [1, 9] [nM] | IC50 [2, 10] [nM] | EC50 [4, 11] [nM] | further results |
| --- | --- | --- | --- | --- | --- |
| CSc1nc(-c2cccc(CN3C(=O)c4ccccc4Nc4ccc(F)cc43)c2)c(-c2ccnc(NC(C)=O)c2)[nH]1 [Compound 1, N-(4-(4-(3-((8-Fluoro-11-oxo-5,11-dihydro-10H-dibenzo[b,e][1,4]diazepin-10-yl)methyl)phenyl)-2-(methylthio)-1H-imidazol-5-yl)pyridin-2-yl) acetamide] | 1300 ± 100 |  |  |  | IC50 ([1]; read-out: IC50 values, LRTMCS): > 1000 nM; IC50 (WT EGFR kinase domain; read-out: IC50 values, WT EGFR): > 1000 nM; IC50 ([2]; read-out: IC50 values, LRTM): > 1000 nM; IC50 (EGFR L858R kinase domain; read-out: IC50 values, LR): > 1000 nM |
| CSc1nc(-c2cccc(NC(=O)c3cccc4c3NC(=O)c3ccccc3N4)c2)c(-c2ccnc(NC(C)=O)c2)[nH]1 [Compound 2, N-(3-(5-(2-Acetamidopyridin-4-yl)-2-(methylthio)-1H-imidazol-4-yl)phenyl)-11-oxo-10,11-dihydro-5H-dibenzo[b,e][1,4]diazepine-9-carboxamide] | 1.5 ± 0.1 | 0.064 ± 0.004 | 0.059 ± 0.005 |  | EGFR, ERK1/2 and AKT phosphorylation (Western blot) [3]: less effective; also recorded: suppresses EGFR phosphorylation |
| CCc1nc(-c2cccc(NC(=O)c3cccc4c3NC(=O)c3ccccc3N4)c2)c(-c2ccnc(NC(C)=O)c2)[nH]1 [Compound 3, N-(3-(5-(2-Acetamidopyridin-4-yl)-2-ethyl-1H-imidazol-4-yl)phenyl)-11-oxo-10,11-dihydro-5H-dibenzo[b,e][1,4]diazepine-9-carboxamide] | 1.2 ± 0.09 | 0.063 ± 0.005 | 0.051 ± 0.005 |  |  |
| CCc1nc(-c2cccc(NC(=O)c3cccc4c3NC(=O)c3ccccc3N4)c2)c(-c2ccnc(Nc3ccccc3)c2)[nH]1 [Compound 5, N-(3-(2-ethyl-5-(2-(phenylamino)pyridin-4-yl)-1H-imidazol-4-yl)phenyl)-11-oxo-10,11-dihydro-5H-dibenzo[b,e][1,4]diazepine-9-carboxamide] | 1.1 ± 0.2 | 1 ± 0.1 | 0.87 ± 0.09 |  | IC50 (WT EGFR kinase domain; 100 μM ATP, enzyme 10 nM, read-out: Biochemical EGFR IC50, wt): < 10 nM |
| O=C1c2ccccc2Nc2ccc(F)cc2N1Cc1ccccc1 [DDC4002] |  |  |  | > 10000 | EC50 ([4]; experiments that include cetuximab, from De Clercq and Heppner et al. 2019, read-out: Anti-proliferative EC50 ± SE, LR): > 10000 nM |
| C=CC(=O)Nc1cc(Nc2nccc(-c3cn(C)c4ccccc34)n2)c(OC)cc1N(C)CCN(C)C [Osimertinib] |  |  |  | 3.3 ± 0.6 | EC50 [5]: 110 ± 40 nM; EC50 [6]: 8 nM; EC50 [7]: 34 ± 8 nM |
